Measurements taken from US7833543B2, “High viscosity liquid controlled delivery system and medical or surgical device” (Durect Corporation, priority 1995, dated 2010).
Values belong to the compound of their own block, whether it stands above or below them.

How the values were obtained:
Type in all cases: physicochemical
[1] = Dissolution of AZT and ddC SAIB formulations in soft gelatin capsules (USP XXIII Apparatus 2, Method B)
Protocol: Zidovudine (AZT) and dideoxycytodine (ddC) suspensions were prepared by mixing drug with SAIB/solvent solutions with and without a cellulosic coexcipient. Approximately 1 g of each formulation was filled into soft gelatin capsules, which were heat sealed. Dissolution profiles were determined using Apparatus 2, Method B (USP XXIII) at a paddle speed of 50 rpm. Individual gelcaps were placed in separate dissolution vessels, and samples of the buffer in each vessel were obtained at 0.25, 0.5, 1, 2, 3, 6, and 24 hours. The samples were analyzed at 266 and 272 nm on a Perkin Elmer Lambda 20 UV-vis spectrophotometer for AZT and ddC drug content, respectively.

[2] = In vitro release of paclitaxel and 5-FU from SAIB formulations into buffer (UV-vis); details: for cumulative release: after 7 days, 37° C.
Protocol: Solutions of SAIB in the appropriate solvent were prepared with and without the incorporation of an additive. The active was weighed into a test tube and the SAIB/mixture was added and mixed thoroughly to yield a solution or suspension at the desired drug loading. Single drops of the mixture were precipitated into buffer by injection with standard syringes and needles. Samples were maintained at 37° C. in a shaker, sampled periodically, and analyzed by UV-vis spectrophotometry for active release. Paclitaxel and 5-FU samples were analyzed at 232 nm and 266 nm, respectively.

[3] = In vitro release of bupivacaine from precipitated drops into buffer (UV-vis 265 nm)
Protocol: CAPROL 10G4O (decaglycerol tetraoleate) was dissolved in benzyl benzoate at a weight ratio of 50:50. Bupivacaine was dissolved in this mixture at a concentration of 8.75 wt %. Drops weighing approximately 100 mg were precipitated into a test tube containing 40 mL of buffer. Samples of the buffer were removed at specified time points and replaced with fresh buffer. The samples were analyzed by UV-vis spectrophotometry at 265 nm to determine the concentration of bupivacaine in each buffer sample. At 4 hours, less than 7.5 wt % of the bupivacaine in the drop had been released to the buffer. At 48 hours, around 24.0 wt % of the bupivacaine had been released.
The 1,6-hexanediol lactate ε-hydroxycaproic acid produced in Example 1 was dissolved in N-methylpyrrolidone at a weight ratio of 70:30. 10 wt % bupivacaine base was then added to this mixture and dissolved. Drops weighing approximately 100 mg were precipitated into 40 mL buffer. Samples of buffer were removed at specified times and replaced with fresh buffer. Buffer samples were analyzed by UV-vis spectrophotometry at 265 nm to determine the concentration of bupivacaine in each buffer sample. At 4 hours, around 4.1 wt % of the bupivacaine contained in the precipitated drop had been released. At 24 hours, around 8.6 wt % of the bupivacaine had been released.

[4] = Aerosol formulation with propellant R-134a: solution formation and sprayability
Protocol: 5.33 g of a 10 wt % solution of bupivacaine in a composition containing 70:30 SAIB/NMP, prepared as described in U.S. Pat. No. 5,747,058, was added to an aerosol container. 14.32 g of propellant R-134a (1,1,1,2-tetrafluoroethane) was added.
5.44 g of a 10 wt % solution of bupivacaine in a composition containing 70:30 SAIB/NMP, prepared as described in U.S. Pat. No. 5,747,058, was added to an aerosol container. 16.55 g. of propellant R-134a (1,1,1,2-tetrafluoroethane) was added.
0.87 g of bupivacaine base was added to an aerosol container. 8.47 g of an SAIB/propylene carbonate solution (70:30) containing 2.5 wt % of a biodegradable polymer (65:35 DLPLG) was added to the container. 0.98 g of ethanol was added to help the drug dissolve. Once dissolved, approximately 16 g of propellant R-134a (1,1,1,2-tetrafluoroethane) was added.

[5] = Dissolution of SAIB in propellants; details: propellants 134a and 227, levels of 5 and 10 wt %
Protocol: SAIB was dissolved in propellants 134a (1,1,1,2-tetrafluoroethane) and 227 (1,1,1,2,3,3,3-heptafluoropropane) at levels of 5 and 10 wt %.

Compound: O=c1[nH]cc(F)c(=O)[nH]1 [Example 5-FU, 5-fluorouracil]
percent released ([2]; 10 mg/mL 5-FU in 85:15 SAIB/EtOH + 5 wt % Cremophor EL, after two days): 106.0% | amount released ([2]; 10 mg/mL 5-FU in 85:15 SAIB/EtOH + Pluronic L-101, after two days): 102.0% | percent released ([2]; 10 mg/mL 5-FU in 85:15 SAIB/EtOH, no surfactant, after two days): 80.6%

Compound: Nc1ccn([C@H]2CC[C@@H](CO)O2)c(=O)n1 [ddC, dideoxycytodine]
cumulative percent released ([1]; 0.225 wt % ddC in 70:30 SAIB/Migylol 810, 2 hours): 74.2% | amount released ([1]; 0.225 wt % ddC in 85:15 SAIB/EtOH + 0.5 wt % CAB, 2 hours): 39.4% | amount released ([1]; 0.225 wt % ddC in 85:15 SAIB/EtOH + 1.0 wt % CAB, 2 hours): 13.5% | cumulative percent released ([1]; 0.225 wt % ddC in 85:15 SAIB/EtOH, 2 hours): 59.5%

More lines, main results first:

cumulative percent released ([1]; 11.1 wt % AZT in 70:30 SAIB/Migylol 810, 2 hours): 104.1% | amount released ([1]; 11.1 wt % AZT in 85:15 SAIB/EtOH + 0.02 wt % CAB, 2 hours): 25.6% | amount released ([1]; 11.1 wt % AZT in 85:15 SAIB/EtOH + 0.2 wt % CAB, 2 hours): 7.6% | cumulative percent released ([1]; 11.1 wt % AZT in 85:15 SAIB/EtOH, 2 hours): 71.2% | cumulative percent released ([1]; active loading doubled to 22.2 wt % in 85:15 SAIB/EtOH): 93.8%
Compound: Cc1cn([C@H]2C[C@H](N=[N+]=[N-])[C@@H](CO)O2)c(=O)[nH]c1=O [AZT, Zidovudine]

bupivacaine contained in the precipitated drop released ([3]; 1,6-hexanediol lactate ε-hydroxycaproic acid (Example 1)/N-methylpyrrolidone 70:30, 10 wt % bupivacaine base, 4 hours): around 4.1 wt % | bupivacaine released ([3]; 1,6-hexanediol lactate ε-hydroxycaproic acid (Example 1)/N-methylpyrrolidone 70:30, 10 wt % bupivacaine base, 24 hours): around 8.6 wt % | bupivacaine in the drop released to the buffer ([3]; CAPROL 10G4O (decaglycerol tetraoleate)/benzyl benzoate 50:50, 8.75 wt % bupivacaine, 4 hours): less than 7.5 wt % | bupivacaine released ([3]; CAPROL 10G4O (decaglycerol tetraoleate)/benzyl benzoate 50:50, 8.75 wt % bupivacaine, 48 hours): around 24.0 wt %
Compound: CCCCN1CCCCC1C(=O)Nc1c(C)cccc1C (stereo not shown) [bupivacaine]
sprayability of aerosol mixture ([4]; 0.87 g bupivacaine base, 8.47 g SAIB/propylene carbonate (70:30) with 2.5 wt % 65:35 DLPLG, 0.98 g ethanol, approx. 16 g R-134a): easily sprayed with no bubbling or foaming | sprayability of aerosol mixture ([4]; 5.33 g of 10 wt % bupivacaine in 70:30 SAIB/NMP + 14.32 g propellant R-134a): easily sprayed with no bubbling or foaming | sprayability of aerosol mixture ([4]; 5.44 g of 10 wt % bupivacaine in 70:30 SAIB/NMP + 16.55 g propellant R-134a): easily sprayed with no bubbling or foaming

percent released ([2]; 25 mg/mL paclitaxel in 85:15 SAIB/EtOH + 5 wt % Cremophor EL, after two days in vitro): 77.0% | percent released ([2]; 25 mg/mL paclitaxel in 85:15 SAIB/EtOH, no surfactant, after two days in vitro): 56.0% | cumulative release ([2]; drug loading 5 mg/mL): 106.4% | cumulative release ([2]; drug loading 25 mg/mL): 85.9% | cumulative release ([2]; drug loading 50 mg/mL): 33.8%
Compound: CC(=O)O[C@H]1C(=O)[C@@]2(C)[C@H]([C@H](OC(=O)c3ccccc3)[C@]3(O)C[C@H](OC(=O)[C@H](O)[C@@H](NC(=O)c4ccccc4)c4ccccc4)C(C)=C1C3(C)C)[C@]1(OC(C)=O)CO[C@@H]1C[C@@H]2O [paclitaxel]

appearance on dissolution in propellants [5]: Clear solutions were formed
Compound: sucrose acetate isobutyrate [SAIB]
